# Experimental data reported in patent US20090270373A1, “TREATMENT OF DOWN SYNDROM WITH BENZODIAZEPINE RECEPTOR ANTAGONISTS” (Cypress Biosciences, Inc., priority 2008, published 2009).
# Assays:
# Ts65Dn mice = assay: Modified spontaneous alternation task (T-maze) in Ts65Dn mice (paper Examples 1 and 2); format: in vivo, mouse; details: 5 to 30 doses, 3 mg/kg in milk orally or 1 mg/kg i.p.
# Procedure: (§1) Flumazenil may also be tested for its effects on declarative memory in the novel object recognition test and in a modified spontaneous alternation task. Wild-type and Ts65Dn mice may be administered flumazenil (3 mg/kg in milk via voluntary oral feeding or 1 mg/kg i.p.). The wild-type and Ts65Dn mice are administered from 5 to 30 doses of milk or milk-flumazenil (or saline or flumazenil solution i.p.). The mice are then subjected to two repetitions of novel object recognition testing or three daily T-maze sessions at the tail end of the treatment regimen. […] Comparison of treated and untreated Ts65Dn mice will provide controls for any possible arm bias in the spontaneous alternation task.
# as §1, with “Bretazenil may” for “Flumazenil may”, “administered bretazenil” for “administered flumazenil”
# benzodiazepine receptors = details: cited from earlier work
# Down Syndrome patients = assay: Cognition in Down Syndrome patients, double-blind cross-over (Example 3); format: in vivo, human; details: 5 and 20 mg
# Procedure: Fifteen adult or adolescent Down Syndrome patients experiencing at least some level of cognitive impairment participate in a double-blind, cross-over comparison of […]. The drugs administered are flumazenil (5 and 20 mg), bretazenil (5 and 20 mg) or placebo. Subjects are randomly assigned to treatments according to a Williams Square design (Higgitt, supra (citing Williams, “Experimental designs balanced for the estimation of residual effects of treatments, Aust. J. Sci. Res. 2:149-168 (1949))). Each subject receives a different sequence of four treatments balanced for carry-over effects and separated by at least 1 week of wash-out period. […]
# Psychophysiological indices to be measured include: EEG, skin conductance, finger tremor, critical flicker fusion threshold, blood pressure and pulse rate, key tapping rate, and reaction time. […]
# EEG and evoked responses: These are recorded during the same EEG recording procedure. […] In addition, the four values are summed and each is expressed as a percentage of the total.
# The averaged evoked responses are obtained from the 500 ms epoch of the EEG following each of the 32 click stimuli. […] The latency at each peak and peak-to-peak amplitudes are computed and recorded automatically. […]
# Skin conductance, blood pressure and pulse rate can be measured by the method of Higgitt et al., supra. […]
compound,measurement,setting,value
"CCOC(=O)c1ncn2c1CN(C)C(=O)c1cc(F)ccc1-2 [flumazenil, 8-fluoro-5,6-dihydro-5-methyl-6-oxo-4H-imidazo[1,5-a]benzodiazepine-3-carboxylic acid ethyl ester]",spontaneous alternation,Ts65Dn mice,normal levels of alternation
same,antagonism of the effects of diazepam,benzodiazepine receptors; given orally or intravenously,effectively antagonizes
same,activity at oral dosing,"benzodiazepine receptors; oral 30 to 100 mg, normal adult human subjects",partial benzodiazepine agonist
same,indicators of cognition as compared to placebo,Down Syndrome patients,improvement in one or more indicators of cognition
